Here are results for 1 compound from patent publication US20230113761A1, “METHOD AND COMPOSITION FOR MIMICKING BIOLOGICAL BENEFITS OF CALORIC RESTRICTION BY ADMINISTRATION OF B-AMINOISOBUTYRIC ACID” (NANJING NUTRABUILDING BIO-TECH CO., LTD., priority 2021, published 2023).

Experiment [1] in a line: Blood lipid parameters (TCHO, TG, LDL, HDL) of high-fat diet mice after 8 weeks of treatment. It counts as in vivo. Conditions: group D (HFD+BAIBA, 150 mg/kg) vs group B (HFD). Here is the method: (§1) Mice were divided into groups and named after the diet they consumed. Group A mice were fed ad libitum (control), Group B mice were on high-fat diet (HFD), Group C mice were fed restricted amount of the HFD diet to achieve caloric restriction (HFD+CR), and Group D mice were fed high-fat diet and supplemented with 150 mg/kg β-aminoisobutyric acid (HFD+BAIBA). All groups of mice were housed individually, and fed for months of interventions and had free access to water. Health status was monitored during the intervention.
(§2) The four groups of mice were fed for eight weeks, body weight was measured weekly, and body fat mass, lean mass and free water mass were also measured by Body Composition Analyzer to monitor body composition every week. At the end of 8 weeks of treatment, blood was collected for each group of mice, and parameters such as total cholesterol (TCHO), triglyceride (TG), low-density lipoprotein (LDL) and high-density lipoprotein (HDL) were detected. Data were collected and subject to statistical analysis.

Experiment [2] is described as follows: Body weight and body composition (fat mass, lean mass, free water) of high-fat diet mice during 8 weeks of feeding intervention. The conditions noted are these: for fat mass: FIG. 2. The class given is in vivo. On the procedure: as §1, §2

For the compound `CC(CN)C(=O)O` (stereo not drawn) [BAIBA, β-aminoisobutyric acid], the “total cholesterol (TCHO) level” value in experiment [1] (FIG. 5) is “significantly lower than that of group B (HFD) and close to that of group C”. Moreover, in experiment [1] (FIG. 6), the “triglyceride (TG) level” value was “significantly lower than that of group B (HFD) and close to that of group C”. In experiment [1] (FIG. 7), the “low-density lipoprotein (LDL) level” value is recorded as “significantly lower than that of group B (HFD)”. Also, in experiment [1] (four groups not significantly different, FIG. 8), the “high-density lipoprotein (HDL) level” value was “higher HDL levles compared to group B (HFD)”. Moreover, the fat mass result in experiment [2] (group D (HFD+BAIBA, 150 mg/kg) vs group B (HFD), 8 weeks, Body Composition Analyzer) was “decreased compared to group B (HFD)”; in experiment [2] (group D (HFD+BAIBA, 150 mg/kg) vs group C (HFD+CR), from week 5 of feeding intervention), “less fat mass than group C (HFD+CR)”. In experiment [2] (group D (HFD+BAIBA, 150 mg/kg) vs group B (HFD), 8 weeks, FIG. 4), the free water content entry was “significantly higher than that in group B (HFD)”. In experiment [2] (group D (HFD+BAIBA, 150 mg/kg) vs group C (HFD+CR), by the 8th week, FIG. 3), the lean mass result is reported as “significantly more than that of group C (HFD+CR)”. In experiment [2] (mice on high-fat diet supplemented with 150 mg/kg BAIBA (group D) vs group B (HFD), 8 weeks, measured weekly, FIG. 1), the body weight entry was “significantly lower than that of group B (HFD)”.
